Source: patent publication US4220644A, “7-Acylamino-3-(substituted tetrazolyl thiomethyl) cephalosporins” (SmithKline Corporation, priority 1976, dated 1980)
In brackets after ≈: the same amount, converted by molar mass. Where two headings read alike, the source gives them in different places.

Key:
[1] = tested on: Entero. aerog. ATCC 13048; assay: MIC in vitro (Table 1), Entero. aerog. ATCC 13048; format: cell-based
From the text: (§1) Compound names corresponding to numbers are given in the experimental section. For comparative purposes, data for cephamandole, which is 7-mandelamido-3-(1-methyltetrazol-5-ylthiomethyl)-3-cephem-4-carboxylic acid, is also given in Tables 1 and 2.

[2] = tested on: E. coli 12140; assay: In vivo mouse protection (Table 2), E. coli 12140
From the text: as §1

[3] = tested on: Strep. Faecalis HH 34358; assay: MIC in vitro (Table 1), Strep. Faecalis HH 34358; format: cell-based; settings: Enterococcus faecalis
From the text: as §1

[4] = tested on: Kleb. pneumo. SK 1200; assay: MIC in vitro (Table 1), Kleb. pneumo. SK 1200; format: cell-based
From the text: as §1

[5] = tested on: S. aureus HH 127; assay: MIC in vitro (Table 1), S. aureus HH 127; format: cell-based; settings: Staphylococcus aureus
From the text: as §1

[6] = tested on: Serra. Marc. ATCC 13880; assay: MIC in vitro (Table 1), Serra. Marc. ATCC 13880; format: cell-based
From the text: as §1

[7] = tested on: Kleb. pneumo. 4200; assay: In vivo mouse protection (Table 2), Kleb. pneumo. 4200
From the text: as §1

[8] = tested on: Shigella HH 117; assay: MIC in vitro (Table 1), Shigella HH 117; format: cell-based; settings: Shigella, HH117, in vitro, read-out: MIC
From the text: as §1, with “The compounds of Formula I have antibacterial activity against both Gram-positive and Gram-negative organisms. […] Compound” for “Compound”

[9] = tested on: E. coli HH 33779; assay: MIC in vitro (Table 1), E. coli HH 33779; format: cell-based; settings: Escherichia coli, HH33779, in vitro, E. coli HH 33779; read-out: MIC
From the text: as §1

[10] = tested on: Pseudo. sp. HH 63; assay: MIC in vitro (Table 1), Pseudo. sp. HH 63; format: cell-based; settings: in vitro, Pseudo. sp. HH 63; read-out: MIC
From the text: as §1, with “The compounds of Formula I have antibacterial activity against both Gram-positive and Gram-negative organisms. […] Compound” for “Compound”

[11] = tested on: Entero. cloacae HH 31254; assay: MIC in vitro (Table 1), Entero. cloacae HH 31254; format: cell-based; settings: Enterobacter cloacae
From the text: as §1

[12] = tested on: E. coli SK 12140; assay: MIC in vitro (Table 1), E. coli SK 12140; format: cell-based; settings: Escherichia coli, SK12140, in vitro
From the text: as §1

[13] = tested on: Salmonella ATCC 12176; assay: MIC in vitro (Table 1), Salmonella ATCC 12176; format: cell-based; settings: Salmonella, ATCC12176, in vitro, read-out: MIC
From the text: as §1, with “The compounds of Formula I have antibacterial activity against both Gram-positive and Gram-negative organisms. […] Compound” for “Compound”

[14] = tested on: Kleb. pneumo. SK 4200; assay: MIC in vitro (Table 1), Kleb. pneumo. SK 4200; format: cell-based
From the text: as §1

[15] = tested on: Proteus morgani 179; assay: MIC in vitro (Table 1), Proteus morgani 179; format: cell-based; settings: read-out: MIC
From the text: as §1

[16] = tested on: S. villaluz; assay: MIC in vitro (Table 1), S. villaluz; format: cell-based; settings: read-out: MIC
From the text: as §1, with “The compounds of Formula I have antibacterial activity against both Gram-positive and Gram-negative organisms. […] Compound” for “Compound”

[17] = tested on: S. aureus SK 23390; assay: MIC in vitro (Table 1), S. aureus SK 23390; format: cell-based; settings: Staphylococcus aureus
From the text: as §1

[18] = Escherichia coli, 12140, po, E. coli 12140, p.o.
[19] = Escherichia coli, 12140, sc, E. coli 12140, s.c.
[20] = in vitro, Strep. Faecalis HH 34358, read-out: MIC
[21] = in vitro, Kleb. pneumo. SK 4200, read-out: MIC
[22] = SK23390, in vitro, S. aureus SK 23390, read-out: MIC
[23] = in vitro, Entero. aerog. ATCC 13048, read-out: MIC
[24] = HH127, in vitro, S. aureus HH 127, read-out: MIC
[25] = in vitro, Serra. Marc. ATCC 13880, read-out: MIC
[26] = HH31254, in vitro, Entero. cloacae HH 31254, read-out: MIC

Row | Structure (SMILES) | ED50 [2, 18] [mg/kg] | ED50 [2, 19] [mg/kg] | MIC [3, 20] [µg/mL] | ED50 ([7]; po, Kleb. pneumo. 4200, p.o.) [mg/kg] | ED50 ([7]; sc, Kleb. pneumo. 4200, s.c.) [mg/kg] | MIC [8] [µg/mL] | MIC [9] [µg/mL] | MIC [10] [µg/mL] | MIC [12] [µg/mL] | MIC [13] [µg/mL] | MIC [14, 21] [µg/mL] | MIC [15] [µg/mL] | MIC [16] [µg/mL] | MIC [17, 22] [µg/mL] | MIC [1, 23] [µg/mL] | MIC [4] [µg/mL] | MIC [5, 24] [µg/mL] | MIC [6, 25] [µg/mL] | MIC [11, 26] [µg/mL] | MIC ([17]; SK23390) [µg/mL] | also measured
1 | NC(=O)CCCn1nnnc1SCC1=C(C(=O)O)N2C(=O)C(NC(=O)[C@H](O)c3ccccc3)[C@H]2SC1 (stereo partly drawn) [XI, 7-D-Mandelamido-3-[1-(3-carbamoylpropyl)tetrazol-5-ylthiomethyl]-3-cephem-4-carboxylic acid] | > 50 | 1.56 | 50 (≈ 93.7 µM) | 25 | 0.37 | 0.4 (≈ 0.75 µM) | 3.1 (≈ 5.81 µM) | > 200 | 0.4 (≈ 0.75 µM) | 0.8 (≈ 1.5 µM) | 0.8 (≈ 1.5 µM) | 0.8 (≈ 1.5 µM) | 50 (≈ 93.7 µM) | 3.1 (≈ 5.81 µM) | – | – | – | – | – | – | MIC [1]: 3.1 µg/mL (≈ 5.81 µM); MIC ([4]; read-out: MIC): 0.8 µg/mL (≈ 1.5 µM); MIC ([5]; HH127): 3.1 µg/mL (≈ 5.81 µM); MIC [6]: 25 µg/mL (≈ 46.9 µM); MIC ([11]; HH31254): 3.1 µg/mL (≈ 5.81 µM)
2 | O=C(O)CCn1nnnc1SCC1=C(C(=O)O)N2C(=O)C(NC(=O)CSC(F)(F)F)[C@H]2SC1 (stereo partly shown) [XV, 7-Trifluoromethylmercaptoacetamido-3-[1-(2-carboxyethyl)tetrazol-5-ylthiomethyl]-3-cephem-4-carboxylic acid] | > 50 | 1.56 | 50 (≈ 94.6 µM) | 46 | 1.12 | 0.8 (≈ 1.51 µM) | 3.1 (≈ 5.87 µM) | – | – | 0.4 (≈ 0.757 µM) | 0.8 (≈ 1.51 µM) | > 200 | 25 (≈ 47.3 µM) | – | 6.3 (≈ 11.9 µM) | 0.4 (≈ 0.757 µM) | 1.6 (≈ 3.03 µM) | 200 (≈ 378 µM) | 0.8 (≈ 1.51 µM) | 0.8 (≈ 1.51 µM) | MIC ([12]; read-out: MIC): 0.8 µg/mL (≈ 1.51 µM)
3 | NC(=O)CCn1nnnc1SCC1=C(C(=O)O)N2C(=O)C(NC(=O)CSC(F)(F)F)[C@H]2SC1 (stereo partly shown) [XVI, 7-Trifluoromethylmercaptoacetamido-3-[1-(2-carbamoylethyl)tetrazol-5-ylthiomethyl]-3-cephem-4-carboxylic acid] | 25 | 0.78 | – | – | 0.54 | 0.2 (≈ 0.379 µM) | 1.6 (≈ 3.03 µM) | > 200 | 0.4 (≈ 0.758 µM) | 0.4 (≈ 0.758 µM) | 0.8 (≈ 1.52 µM) | 12.5 (≈ 23.7 µM) | 6.3 (≈ 11.9 µM) | – | 1.6 (≈ 3.03 µM) | 0.4 (≈ 0.758 µM) | 0.4 (≈ 0.758 µM) | – | 0.4 (≈ 0.758 µM) | 0.8 (≈ 1.52 µM) | MIC [3]: 12.5 µg/mL (≈ 23.7 µM)
4 | NC(=O)Cn1nnnc1SCC1=C(C(=O)O)N2C(=O)C(NC(=O)CSC(F)(F)F)[C@H]2SC1 (stereo partly shown) [XVII, 7-Trifluoromethylmercaptoacetamido-3-(1-carbamoylmethyltetrazol-5-ylthiomethyl)-3-cephem-4-carboxylic acid] | 6.25 | 0.28 | 25 (≈ 48.7 µM) | 15.5 | 0.78 | 0.2 (≈ 0.389 µM) | 3.1 (≈ 6.04 µM) | – | 0.4 (≈ 0.779 µM) | 0.4 (≈ 0.779 µM) | 0.8 (≈ 1.56 µM) | 200 (≈ 389 µM) | 12.5 (≈ 24.3 µM) | – | 1.6 (≈ 3.12 µM) | 0.4 (≈ 0.779 µM) | 0.4 (≈ 0.779 µM) | 100 (≈ 195 µM) | 0.8 (≈ 1.56 µM) | 0.4 (≈ 0.779 µM) | –
5 | O=C(O)Cn1nnnc1SCC1=C(C(=O)O)N2C(=O)C(NC(=O)CSC(F)(F)F)[C@H]2SC1 (stereo partly shown) [XVIII, 7-Trifluoromethylmercaptoacetamido-3-(1-carboxymethyltetrazol-5-ylthiomethyl)-3-cephem-4-carboxylic acid] | – | 3.1 | 100 (≈ 194 µM) | – | 0.4 | 3 (≈ 5.83 µM) | 6 (≈ 11.7 µM) | – | – | 0.8 (≈ 1.55 µM) | – | 200 (≈ 389 µM) | 100 (≈ 194 µM) | 3 (≈ 5.83 µM) | 13 (≈ 25.3 µM) | 0.4 (≈ 0.777 µM) | 3 (≈ 5.83 µM) | > 200 | 3 (≈ 5.83 µM) | – | MIC ([12]; read-out: MIC): 0.8 µg/mL (≈ 1.55 µM); MIC [14]: 0.4 µg/mL (≈ 0.777 µM)
